From patent US20220241249A1, “PHARMACEUTICAL COMPOSITION AND KIT CONTAINING NOVEL PENAM DERIVATIVE OR SALT THEREOF AND ONE OR MORE COMPOUNDS SELECTED FROM beta-LACTAMASE INHIBITORY COMPOUND AND ANTIBACTERIAL COMPOUND OR SALTS THEREOF” (priority 2019, published 2022) come the findings set out here.

Common to all, as to type: cell-based
The subject of assay [1] is Klebsiella pneumoniae ATCC13883 strain (Klebsiella pneumoniae A). As to the kind of experiment: Combinational effect of test compound and antibacterial compound, checkerboard FIC index. As to the method: (§1) By using a broth microdilution method, the combinational effect of antibacterial activity of a test compound and an antibacterial compound was evaluated.
(§2) As bacterial strains, an Escherichia coli ATCC25922 strain (hereinafter, called Escherichia coli A), a Klebsiella pneumoniae ATCC13883 strain (hereinafter, called Klebsiella pneumoniae A), and a Pseudomonas aeruginosa ATCC27853 strain (hereinafter, called Pseudomonas aeruginosa A) were used.
(§3) The minimum inhibitory concentration (hereinafter, called MIC) was measured according to the Clinical and Laboratory Standards Institute (CLSI) standard method by using the following broth microdilution method.
(§4) The bacterial cells that had been cultured overnight on a Mueller Hinton agar medium were scraped off, suspended at a density equivalent to 0.5 McFarland standard. The obtained suspension was diluted at 10 fold, thereby obtaining an inoculum. Cation-adjusted Mueller Hinton media containing only a test compound, containing only an antibacterial compound, or containing a test compound and an antibacterial compound were inoculated with 0.005 mL of the inoculum, and the cells were cultured at 35° C. for 18 to 20 hours. The minimum drug concentration at which the growth of bacteria was not visually observed was defined as MIC (μg/mL).
(§5) The FIC Index is the minimum value calculated by the following formula.
(§6) FIC Index=(MIC value obtained in a case where test compound is used in combination/MIC value obtained in a case where test compound is used alone)+(MIC value obtained in a case where antibacterial compound is used in combination/MIC value obtained in a case where antibacterial compound is used alone)
(§7) In a case where the FIC Index was 0.5 or less, it was decided that the use of two drugs in combination brings about a synergistic effect.
(§8) In a case where the FIC Index was more than 0.5 and 1 or less, it was decided that the use of two drugs in combination brings about an additive effect. (Diagnostic Microbiology and Infectious Disease, 2004, Vol. 49, p. 197)

Assay [2] relates to Pseudomonas aeruginosa ATCC27853 strain (Pseudomonas aeruginosa A). Described as above. As to conditions: for FIC index: Pseudomonas aeruginosa A, checkerboard. As to the method:
as §1, §2, §3, §4, §5, §6, §7, §8

In assay [3] the test system is Klebsiella pneumoniae Y-1133 strain producing NDM-1, OXA-48, and CTX-M-15 (strain C). The assay can be described thus: MIC of test compound alone or with β-lactamase inhibitor at 4 μg/mL. As to conditions: Klebsiella pneumoniae. The method in brief: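 Broth microdilution MIC against K. pneumoniae Y-1133 (NDM-1, OXA-48, CTX-M-15), test compound alone or combined with a β-lactamase inhibitor at 4 μg/mL.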

As usually defined, the MIC is the lowest concentration that inhibits growth of the organism. In the case of `CC(C)(O/N=C(\C(=O)NC1C(=O)N2C[C@@](C(=O)O)(N3CCN(NC(=O)C(=O)c4ccc(O)c(O)c4Cl)C(=O)C3=O)S[C@H]12)c1csc(N)n1)C(=O)O` (stereo partly drawn) [Example 126, (3R,5R,6R)-6-((Z)-2-(2-aminothiazol-4-yl)-2-(((2-carboxypropan-2-yl)oxy)imino)aceta-mido)-3-(4-(2-(2-chloro-3,4-dihydroxy-phenyl)-2-oxoaceta-mido)-2,3-dioxopipera-zin-1-yl)-7-oxo-4-thia-1-azabicyclo[3.2.0]-heptane-3-carboxylic acid], the FIC index is 0.75 in assay [1] (in combination with AMK); 0.625 in assay [1] (in combination with CAZ); 0.375 in assay [1] (in combination with IPM); 0.75 in assay [1] (in combination with LVFX); 0.188 in assay [1] (in combination with MPC); less than 0.5 in assay [1] (in combination with PIPC). The FIC index in assay [1] (in combination with PL-B) is listed as 0.625; in assay [1] (in combination with RFP), 0.563; in assay [1] (in combination with VCM), less than 0.625; in assay [2] (in combination with AMK), 0.5; in assay [2] (in combination with CAZ) it was 0.563; in assay [2] (in combination with IPM), 0.188. For the same compound, the FIC index in assay [2] (in combination with LVFX) is 0.188; in assay [2] (in combination with PIPC), 0.75; in assay [2] (in combination with PL-B), 0.188; in assay [2] (in combination with RFP) it was 0.375; in assay [2] (in combination with TC) it was 0.25; in assay [2] (in combination with VCM), 0.266. In assay [2] (main strains of Gram-negative bacteria, summary of Tables 40 to 42), the “combinational effect with other antibacterial compounds” value is given as “additive or synergistic effect”. Moreover, the MIC in assay [3] (AVI added at 4 μg/mL) was 0.5 µg/mL; in assay [3] (NAC added at 4 μg/mL) it was 0.03 µg/mL; in assay [3] (ZID added at 4 μg/mL), less than 0.015 µg/mL; in assay [3] (test compound alone (β-lactamase inhibitor N/A)), 1 µg/mL.
